Values quoted from earlier work in patent US10583154B2, “Multi-dose compositions containing an antimicrobial polyamide or octenidine preservative” (priority 2016, dated 2020).

Assays:
Settings in all cases: cited from earlier work
[1] = system: Aspergillus niger
[2] = system: Pseudomonas aeruginosa
[3] = system: E. coli
[4] = system: Staphylococcus aureus
[5] = system: Candida albicans

C[CH2][Hg][S]c1ccccc1C(=O)[O-].[Na+] [thimerosal]
Minimum Inhibitory Concentration (MIC) [1]: 128 µg/mL | Minimum Inhibitory Concentration (MIC) [2]: 4 to 8 µg/mL | Minimum Inhibitory Concentration (MIC) [3]: 4 to 8 µg/mL | Minimum Inhibitory Concentration (MIC) [4]: 0.2 µg/mL | Minimum Inhibitory Concentration (MIC) [5]: 32 µg/mL
